Publication PMC9459403, “New inhibitors of cathepsin V impair tumor cell proliferation and elastin degradation and increase immune cell cytotoxicity” (Computational and Structural Biotechnology Journal, 2022)

Key:
[1] = Aqueous stability (HPLC-based assay); assay type: physicochemical; conditions: 50 μM, 60 h
Protocol: HPLC analyses were performed as described under the Compound characterization section. The method used a Waters Acquity UPLC® HSS C18 SB column (2.1 × 50 mm, 1.8 µm) thermostated at 40 °C, injection volume, 10 µL; flow rate, 0.3 mL/min; detector λ, 280 nm; mobile phase A: 0.1 % TFA (v/v) in water; mobile phase B: MeCN. Method: 0–9 min, 5 % – 95 % B; 9 – 11 min, 95 % B; 11 – 11.5 min, 95 % - 5% B.
Compound 7 stock solution (1 mM) was prepared in DMSO, while internal standard (caffeine, 1 mM) was dissolved in buffer (PBS pH 7.4). The aqueous stability solution was prepared by mixing 1400 µL buffer, 400 µL MeCN, 100 µL internal standard stock solution, and 100 µL compound stock solution in a HPLC vial to give 50 μM compound, 50 μM internal standard, 20 % MeCN, and 5 % DMSO in buffer, which was injected immediately and then at hourly intervals for 60 h while being incubated at 37 °C. The analyte areas under curve (AUCs) were normalized on internal standard AUCs.

Kinetic solubility = assay type: physicochemical; conditions: PBS pH 7.4 with 5 % DMSO, pH 7.4, aqueous with cosolvent or surfactant or cyclodextrin, kinetic from dmso stock; PBS with 5 % DMSO
Protocol: The solubility of compound 7 was determined in buffer (PBS pH 7.4) containing 5 % DMSO. Serial dilutions of 7 were prepared in DMSO at concentrations of 4 mM, 2 mM, 1.5 mM, 1 mM, and 0.2 mM. The assay was performed in 96-well microplates in duplicate. Briefly, to 190 µL of buffer, 10 µL of the compound stock solution in DMSO was added. The plate was shaken and the absorbance at 620 nm was measured using a plate reader (Synergy H4, BioTek Instruments, Inc., Santa Clara, CA, USA) in area scan mode (5 × 5 measurements per well). The mean absorbance was then compared relative to the blank to determine the solubility of the compound at each concentration tested.

[2] = system: U-937-derived macrophages; assay: Intracellular elastin-FITC degradation; assay type: cell-based, human
Protocol: To evaluate the effect of the inhibitors on the elastolytic activity of cathepsin V, we assessed the intracellular degradation of elastin-FITC, a soluble bovine neck ligament elastin that is heavily labeled with FITC such that the fluorescence of the conjugate is quenched. Upon proteolysis, fluorescence is recovered and can be detected. U-937 cells, differentiated into macrophage-like cells, were seeded (at 1 × 10^5 cells/well) into 24-well plates with 500 μL of medium supplemented with 50 nM PMA. Inhibitors or DMSO (0.1 %) and elastin-FITC (10 μg/mL; AnaSpec, Fermont, CA, USA) were added to the medium and incubated for 24 h at 37 °C. Cells were detached and washed with PBS, and propidium iodide (BD Bioscience) was added to exclude dead cells. Therefore, green fluorescence arising from elastin-FITC degradation was monitored only for viable cells. The measurement was performed using a FACSCalibur instrument (BD Biosciences).

[3] = system: cystatin F in U-937 cells; assay: Western blot of cystatin F dimer-to-monomer ratio; assay type: cell-based, human; conditions: U-937 cell lysates, 6 h treatment, 10 and 20 μM, vs control
Protocol: Cells were treated with E-64d or compound 7 (both at 10 µM or 20 µM) for 6 h. After treatment, whole-cell lysates were prepared in RIPA buffer supplemented with cOmplete™ Protease Inhibitor Cocktail (Roche, Basel, Switzerland) and centrifuged at 16 000 × g for 20 min at 4 °C. Total protein concentration was determined using the DC assay (Biorad, Hercules, CA, USA). Proteins were separated by non-reducing SDS-PAGE and transferred to a nitrocellulose membrane using the TransBlot Turbo System (Biorad). After blocking, the membranes were incubated with primary antibodies overnight at 4 °C and with secondary antibodies for 1 h at room temperature. Bands were visualized using Clarity Max Western ECL substrate (Biorad), and protein loading was checked using Stain Free technology (Biorad). Images were acquired using the ChemiDoc ML Imaging System (Biorad), and quantification analysis was performed using Image Lab software (Biorad).
The following primary antibodies were used: rabbit anti-cystatin F (1:375, HPA040442, Sigma), goat anti-cathepsin V (1:200, AF 1080, R&D, USA), and mouse anti-GAPDH (1:3000, 10494-I-AP, Proteintech, USA). […]

NK-92 cells = assay: Cell viability assay (MTS); assay type: cell-based; conditions: up to 10 μM, 24 h
Protocol: (§1) The effect of compound 7 on the viability of NK-92, TALL-104, and K-562 cells was evaluated using the MTS [3-(4,5-dimethylthiazol-2-yl)-5-(3-carboxymetoxyphenyl)-2-(4-sulfophenyl)–2H-tetrazolium] colorimetric assay (CellTiter 96 Aqueous One Solution Cell Proliferation Assay, Promega, Madison, WI, USA). NK-92, TALL-104, and K-562 cells were seeded at 2.5 × 10^4, 1 × 10^5, and 1 × 10^4 cells/well, respectively, into a 96-well microplate and treated with inhibitors (2.5, 5, or 10 µM) or DMSO (0.1 %) for 24 h. After incubation, 10 µL of the reagent MTS was added to the wells, and the absorbance of formazan was measured at 492 nm on a Tecan Infinite M1000 (Mannedorf, Switzerland). Cell viability (%) was expressed as the ratio between absorbance in the presence of the compounds and in the presence of DMSO. All assays were performed in quadruplicate and repeated at least twice.

TALL-104 cells = assay: Cell viability assay (MTS); assay type: cell-based; conditions: up to 10 μM, 24 h
Protocol: as §1

K-562 cells = assay: Cell viability assay (MTS); assay type: cell-based, human; conditions: 24 h
Protocol: as §1

O=C(NCc1cccc2ccccc12)NCC1CCN(C(=O)Oc2ccccc2)CC1 [Compound 7, Phenyl 4-((3-(naphthalen-1-ylmethyl)ureido)methyl)piperidine-1-carboxylate]
aqueous stability ([1]; PBS pH 7.4, 20 % MeCN, 5 % DMSO, 37 °C): stable for days
difference between the last and the first timepoint (normalized AUC) ([1]; PBS pH 7.4, 37 °C, smaller than experimental error): < 2%
solubility kinetic (Kinetic solubility): 75 to 100 µM
decrease of elastin-FITC degradation ([2]; 10 μM, 24 h, vs DMSO): 9.5 ± 1.6%
elastin-FITC degradation, compound 7 added to CLIK-148 ([2]; compound 7 10 μM + CLIK-148, vs control cells and CLIK-148 alone): significantly decreased
cystatin F dimer-to-monomer ratio [3]: even further increased
viability of NK-92 cells (NK-92 cells): not significantly reduced
viability of TALL-104 cells (TALL-104 cells): not significantly reduced
viability of K-562 cells (K-562 cells; 10 μM): slightly decreased
viability of K-562 cells (K-562 cells; up to 5 μM): not decreased
